Where a SMILES comes first, the peptide text is derived from it. [ ]: non-standard residue; d: D form.
How the values were obtained:
[1] = test system: blood cell subsets (cell surface antigens); assay: In vivo/ex vivo immunophenotyping in the blood, mice treated 4 consecutive days, blood taken on day 5; set-up: species or system C57BL/6 mice
Method: C57BL.backslash.6 mice are treated with 0, 50, 100, 200, and 300 mg/kg of drug (in saline) for 4 consecutive days. Blood is taken by cardiac puncture on day 5, and the lymphocytes are isolated from spleen in the following manner:
1. Immunophenotyping (blood and spleen)
Cell immunophenotyping is performed on blood and spleen. The following cell surface antigens are analyzed:
CD4 (T helper/inducer, binds class II-restricted T cells);
CD8 (cytotoxic T cells, CTL adhesion);
MAC-1 (monocyte/macrophage);
NK (natural killer cells);
CD45 (all leukocytes, protein tyrosine phosphatase).

[2] = Stability in Human Whole Blood at 37° C., HPLC; assay type: in vitro ADME; set-up: half-life: dose or concentration left out as unconfirmed; conditions: for HPLC AREA: human whole blood 37° C.
Method: The procedures are the same as example 5 with the exceptions that human whole blood was substituted for rat whole blood, and that in Step 2, (blood incubation) aliquotes were taken at the following times: […]

[3] = Toxicity in vivo
From the text: peptide #1 (SEQ. ID NO:1) appears to be non-toxic.

With `NCCCC[C@@H](N)C(=O)N[C@@H](CC(N)=O)C(=O)N1CCC[C@H]1C(=O)N[C@@H](Cc1ccc(O)cc1)C(=O)O` [PEPTIDE #5, H-(D-Lys)-Asn-Pro-Tyr-OH] (H-[dK]NPY-OH) the “CD4- CD11b- cell subset, relative percentage, MEAN” value ([1]; 100 mg/kg, second assay) was 67.65, the “CD45+ CD4+ cell subset, relative percentage, MEAN” value ([1]; 100 mg/kg, second assay) was 22.70 and the “CD45+ CD4- cell subset, relative percentage, MEAN” value ([1]; 100 mg/kg, second assay) was 68.45. For the same molecule, the “CD45+ CD8+ cell subset, relative percentage, MEAN” value ([1]; 100 mg/kg, second assay) was 7.05, the “CD45+ CD8- cell subset, relative percentage, MEAN” value ([1]; 100 mg/kg, second assay) was 85.00 and the “CD45- CD4+ cell subset, relative percentage, MEAN” value ([1]; 100 mg/kg, second assay) was 2.23. The “CD45- CD4- cell subset, relative percentage, MEAN” value ([1]; 100 mg/kg, second assay) was 6.63, the “CD45- CD8+ cell subset, relative percentage, MEAN” value ([1]; 100 mg/kg, second assay) was 0.10 and the “CD45- CD8- cell subset, relative percentage, MEAN” value ([1]; 100 mg/kg, second assay) was 7.83. For the same molecule, the “Ly5(B) cell subset, relative percentage, MEAN” value ([1]; 100 mg/kg, second assay) was 56.10, the “NK+ CD3+ cell subset, relative percentage, MEAN” value ([1]; 100 mg/kg, second assay) was 4.68 and the “NK+ CD3- cell subset, relative percentage, MEAN” value ([1]; 100 mg/kg, second assay) was 7.58. For the same molecule, the “NK- CD3+ cell subset, relative percentage, MEAN” value ([1]; 100 mg/kg, second assay) was 36.30, the “NK- CD3- cell subset, relative percentage, MEAN” value ([1]; 100 mg/kg, second assay) was 51.43 and the “TCR(T) cell subset, relative percentage, MEAN” value ([1]; 100 mg/kg, second assay) was 37.50. For the same molecule, the “CD4+ CD8+ cell subset, relative percentage, MEAN” value ([1]; 200 mg/kg, first assay) was 1.90, the “CD4+ CD8- cell subset, relative percentage, MEAN” value ([1]; 200 mg/kg, first assay) was 19.00 and the “CD4+ CD11b+ cell subset, relative percentage, MEAN” value ([1]; 200 mg/kg, first assay) was 0.85. For the same molecule, the “CD4+ CD11b- cell subset, relative percentage, MEAN” value ([1]; 200 mg/kg, first assay) was 18.98, the “CD4- CD8+ cell subset, relative percentage, MEAN” value ([1]; 200 mg/kg, first assay) was 4.68 and the “CD4- CD8- cell subset, relative percentage, MEAN” value ([1]; 200 mg/kg, first assay) was 74.40. The “CD4- CD11b+ cell subset, relative percentage, MEAN” value ([1]; 200 mg/kg, first assay) was 7.78, the “CD4- CD11b- cell subset, relative percentage, MEAN” value ([1]; 200 mg/kg, first assay) was 72.45 and the “CD45+ CD4+ cell subset, relative percentage, MEAN” value ([1]; 200 mg/kg, first assay) was 17.45. For the same molecule, the “CD45+ CD4- cell subset, relative percentage, MEAN” value ([1]; 200 mg/kg, first assay) was 57.70, the “CD45+ CD8+ cell subset, relative percentage, MEAN” value ([1]; 200 mg/kg, first assay) was 6.15 and the “CD45+ CD8- cell subset, relative percentage, MEAN” value ([1]; 200 mg/kg, first assay) was 64.30. For the same molecule, the “CD45- CD4+ cell subset, relative percentage, MEAN” value ([1]; 200 mg/kg, first assay) was 3.48, the “CD45- CD4- cell subset, relative percentage, MEAN” value ([1]; 200 mg/kg, first assay) was 21.35 and the “CD45- CD8- cell subset, relative percentage, MEAN” value ([1]; 200 mg/kg, first assay) was 29.08. The “CD45- CDE8+ cell subset, relative percentage, MEAN” value ([1]; 200 mg/kg, first assay) was 0.48, the “Ly5(B) cell subset, relative percentage, MEAN” value ([1]; 200 mg/kg, first assay) was 65.60 and the “NK+ CD3+ cell subset, relative percentage, MEAN” value ([1]; 200 mg/kg, first assay) was 1.93. The “NK+ CD3- cell subset, relative percentage, MEAN” value ([1]; 200 mg/kg, first assay) was 5.73, the “NK- CD3+ cell subset, relative percentage, MEAN” value ([1]; 200 mg/kg, first assay) was 33.03 and the “NK- CD3- cell subset, relative percentage, MEAN” value ([1]; 200 mg/kg, first assay) was 59.33. For the same molecule, the “TCR(T) cell subset, relative percentage, MEAN” value ([1]; 200 mg/kg, first assay) was 32.18, the “CD4+ CD8+ cell subset, relative percentage, MEAN” value ([1]; 200 mg/kg, second assay) was 0.30 and the “CD4+ CD8- cell subset, relative percentage, MEAN” value ([1]; 200 mg/kg, second assay) was 23.13. For the same molecule, the “CD4+ CD11b+ cell subset, relative percentage, MEAN” value ([1]; 200 mg/kg, second assay) was 0.13, the “CD4+ CD11b- cell subset, relative percentage, MEAN” value ([1]; 200 mg/kg, second assay) was 15.40 and the “CD4- CD8+ cell subset, relative percentage, MEAN” value ([1]; 200 mg/kg, second assay) was 7.58. The “CD4- CD8- cell subset, relative percentage, MEAN” value ([1]; 200 mg/kg, second assay) was 69.03, the “CD4- CD11b+ cell subset, relative percentage, MEAN” value ([1]; 200 mg/kg, second assay) was 5.20 and the “CD4- CD11b- cell subset, relative percentage, MEAN” value ([1]; 200 mg/kg, second assay) was 79.30. The “CD45+ CD4+ cell subset, relative percentage, MEAN” value ([1]; 200 mg/kg, second assay) was 20.85, the “CD45+ CD4- cell subset, relative percentage, MEAN” value ([1]; 200 mg/kg, second assay) was 71.95 and the “CD45+ CD8+ cell subset, relative percentage, MEAN” value ([1]; 200 mg/kg, second assay) was 7.83. The “CD45+ CD8- cell subset, relative percentage, MEAN” value ([1]; 200 mg/kg, second assay) was 85.60, the “CD45- CD4+ cell subset, relative percentage, MEAN” value ([1]; 200 mg/kg, second assay) was 2.23 and the “CD45- CD4- cell subset, relative percentage, MEAN” value ([1]; 200 mg/kg, second assay) was 5.00. The “CD45- CD8+ cell subset, relative percentage, MEAN” value ([1]; 200 mg/kg, second assay) was 0.05, the “CD45- CD8- cell subset, relative percentage, MEAN” value ([1]; 200 mg/kg, second assay) was 6.53 and the “Ly5(B) cell subset, relative percentage, MEAN” value ([1]; 200 mg/kg, second assay) was 65.63. For the same molecule, the “NK+ CD3+ cell subset, relative percentage, MEAN” value ([1]; 200 mg/kg, second assay) was 2.90, the “NK+ CD3- cell subset, relative percentage, MEAN” value ([1]; 200 mg/kg, second assay) was 6.83 and the “NK- CD3+ cell subset, relative percentage, MEAN” value ([1]; 200 mg/kg, second assay) was 32.30. For the same molecule, the “NK- CD3- cell subset, relative percentage, MEAN” value ([1]; 200 mg/kg, second assay) was 58.03, the “TCR(T) cell subset, relative percentage, MEAN” value ([1]; 200 mg/kg, second assay) was 35.80 and the “CD4- CD8-, figure printed with the significant increase of B cells” value ([1]; all tested doses) was 73%. The “Ly5, figure printed with the significant increase of B cells” value ([1]; all tested doses) was 80%, the “change of B cells (in words)” value ([1]; all tested doses) was “significant increase” and the “HPLC AREA” value ([2]; 0 min) was 2857082.5. For the same molecule, the “HPLC AREA” value ([2]; 15 min) was 3066465, the “HPLC AREA” value ([2]; 30 min) was 3017509.5 and the “HPLC AREA” value ([2]; 60 min) was 3135696.5. The “HPLC AREA” value ([2]; 90 min) was 3005211, the “HPLC AREA” value ([2]; 120 min) was 3476665.5 and the “HPLC AREA” value ([2]; 150 min) was 3063052. For the same molecule, the “HPLC AREA” value ([2]; 180 min) was 3108157, the “HPLC AREA” value ([2]; 210 min) was 3181899 and the half-life ([2]; human, human whole blood, 37° C.) was > 3.5 h. The “gross pathological observations (in words)” value ([3]; in vivo) was “no sign of irritation” and the “toxic effect (in words)” value ([3]; up to 200 mg/kg) was “No toxic effect”.

— patent publication US5980913A, “Peptides having immunomodulatory activity” (Biochem Pharma, Inc., priority 1994, dated 1999)
